From patent publication US8614327B2 (Vertex Pharmaceuticals Incorporated, priority 2004, dated 2013)

Molecular target: T1, ΔF508-CFTR (Homo sapiens, UniProt P13569, DEL508-508)
T1 construct: expressed in transfected cells
Assay: Membrane potential optical (FRET/VIPR) assay, identification of potentiator compounds
Assay type: cell-based
Conditions: Table 3, assay not given; for % Activity: relative efficacy
Summary of the method: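 NIH3T3 mouse fibroblasts stably expressing ΔF508-CFTR, temperature-corrected 24 h at 27° C., read on VIPR by FRET between CC2-DMPE and DiSBAC2(3). Potentiators identified in a double-addition format, first adding chloride-free (gluconate) medium with or without compound.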

T1 sequence (P13569 with tags, fused parts or gaps DEL508-508): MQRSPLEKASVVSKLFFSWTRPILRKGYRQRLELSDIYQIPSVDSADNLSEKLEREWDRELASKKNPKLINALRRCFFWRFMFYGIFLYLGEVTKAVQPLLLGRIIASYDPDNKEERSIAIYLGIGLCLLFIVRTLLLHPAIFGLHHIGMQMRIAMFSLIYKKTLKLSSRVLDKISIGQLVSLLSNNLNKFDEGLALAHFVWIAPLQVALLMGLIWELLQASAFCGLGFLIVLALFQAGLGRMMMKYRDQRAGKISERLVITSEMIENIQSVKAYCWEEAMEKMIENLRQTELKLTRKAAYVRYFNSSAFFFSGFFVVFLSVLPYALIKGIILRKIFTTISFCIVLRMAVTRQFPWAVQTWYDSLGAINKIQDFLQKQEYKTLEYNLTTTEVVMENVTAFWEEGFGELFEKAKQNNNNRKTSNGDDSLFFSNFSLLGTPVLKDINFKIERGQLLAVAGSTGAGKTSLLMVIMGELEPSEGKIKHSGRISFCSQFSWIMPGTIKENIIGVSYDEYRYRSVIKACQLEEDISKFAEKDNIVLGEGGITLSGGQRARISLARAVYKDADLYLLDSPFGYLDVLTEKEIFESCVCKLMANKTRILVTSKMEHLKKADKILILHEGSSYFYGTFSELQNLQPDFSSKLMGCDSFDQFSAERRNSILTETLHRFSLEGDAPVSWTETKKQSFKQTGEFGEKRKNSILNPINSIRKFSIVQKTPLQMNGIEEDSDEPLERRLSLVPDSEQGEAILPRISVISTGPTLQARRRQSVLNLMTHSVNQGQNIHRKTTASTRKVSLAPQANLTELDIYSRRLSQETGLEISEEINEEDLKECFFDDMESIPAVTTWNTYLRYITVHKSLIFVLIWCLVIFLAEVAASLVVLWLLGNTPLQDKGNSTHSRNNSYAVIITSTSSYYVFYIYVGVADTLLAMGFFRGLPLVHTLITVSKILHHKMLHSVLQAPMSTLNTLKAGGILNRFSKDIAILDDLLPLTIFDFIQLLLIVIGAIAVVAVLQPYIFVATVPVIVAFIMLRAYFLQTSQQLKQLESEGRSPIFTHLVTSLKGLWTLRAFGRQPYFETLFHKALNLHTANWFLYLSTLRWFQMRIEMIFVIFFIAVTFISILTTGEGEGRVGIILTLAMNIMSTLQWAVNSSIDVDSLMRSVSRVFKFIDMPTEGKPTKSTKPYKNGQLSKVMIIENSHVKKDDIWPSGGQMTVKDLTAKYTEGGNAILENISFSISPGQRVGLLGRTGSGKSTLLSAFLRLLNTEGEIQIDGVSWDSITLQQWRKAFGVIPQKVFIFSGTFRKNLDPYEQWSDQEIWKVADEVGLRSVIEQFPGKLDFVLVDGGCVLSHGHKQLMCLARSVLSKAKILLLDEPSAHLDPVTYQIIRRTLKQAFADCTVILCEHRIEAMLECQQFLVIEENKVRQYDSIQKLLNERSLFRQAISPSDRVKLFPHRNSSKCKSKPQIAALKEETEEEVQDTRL

Row | SMILES | EC50 | % Activity
1 | O=C(Nc1ccccc1-c1ccccc1C(F)(F)F)c1c[nH]c2ccccc2c1=O [Compound 11, 4-oxo-N-[2-[2-(trifluoromethyl)phenyl]phenyl]-1H-quinoline-3-carboxamide] | < 10 µM | ++ (between 25% to 100%)
2 | O=C(Nc1ccccc1-c1cc(Cl)ccc1Cl)c1c[nH]c2ccccc2c1=O [Compound 213, N-[2-(2,5-dichlorophenyl)phenyl]-4-oxo-1H-quinoline-3-carboxamide] | < 10 µM | ++ (between 25% to 100%)
3 | CCOc1ccc2[nH]cc(C(=O)Nc3cc(O)c(C(C)(C)C)cc3C(C)(C)C)c(=O)c2c1 [Compound 524, 6-ethoxy-N-(5-hydroxy-2,4-ditert-butyl-phenyl)-4-oxo-1H-quinoline-3-carboxamide] | < 10 µM | ++ (between 25% to 100%)
4 | CN(C)[C@H]1CCN(c2ccc(NC(=O)c3c[nH]c4ccccc4c3=O)c(C(F)(F)F)c2)C1 [Compound 513, (S)-N-(4-(3-(dimethylamino)pyrrolidin-1-yl)-2-(trifluoromethyl)phenyl)-4-oxo-1,4-dihydroquinoline-3-carboxamide] | < 10 µM | ++ (between 25% to 100%)
5 | COc1nc2ccccc2c(OC)c1C(=O)Nc1ccccc1-c1ccccc1 [Compound 210, 2,4-dimethoxy-N-(2-phenylphenyl)-quinoline-3-carboxamide] | 10 to 25 µM | ++ (between 25% to 100%)
6 | O=C(Nc1cc(O)c(C2CCCCC2)cc1C(F)(F)F)c1c[nH]c2ccccc2c1=O [Compound 619, N-[4-cyclohexyl-5-hydroxy-2-(trifluoromethyl)phenyl]-4-oxo-1H-quinoline-3-carboxamide] | < 10 µM | +++ (>100%)
7 | O=C(Nc1ccccc1-c1cc2ccccc2s1)c1c[nH]c2ccccc2c1=O [Compound 172, N-(2-(benzo[b]thiophen-2-yl)phenyl)-1,4-dihydro-4-oxoquinoline-3-carboxamide] | < 10 µM | ++ (between 25% to 100%)
8 | O=C(Nc1ccccc1-c1cccc(F)c1F)c1c[nH]c2ccccc2c1=O [Compound 285, N-[2-(2,3-difluorophenyl)phenyl]-4-oxo-1H-quinoline-3-carboxamide] | < 10 µM | ++ (between 25% to 100%)

Further lines, results first:

Row | EC50 | % Activity | SMILES
9 | < 10 µM | ++ (between 25% to 100%) | CCCCc1ccc(NC(=O)c2c[nH]c3ccccc3c2=O)cc1 [Compound 324, N-(4-butylphenyl)-4-oxo-1H-quinoline-3-carboxamide]
10 | < 10 µM | ++ (between 25% to 100%) | CC(C)(C)c1ccc(NC(=O)c2c[nH]c3ccccc3c2=O)cc1O [Compound 428, N-(3-hydroxy-4-tert-butyl-phenyl)-4-oxo-1H-quinoline-3-carboxamide]
11 | < 10 µM | ++ (between 25% to 100%) | CC(C)c1ccc(NC(=O)c2c[nH]c3ccccc3c2=O)c(C(F)(F)F)c1 [Compound 47, N-[4-isopropyl-2-(trifluoromethyl)phenyl]-4-oxo-1H-quinoline-3-carboxamide]
12 | < 10 µM | ++ (between 25% to 100%) | CC(C)c1ccc(NC(=O)c2c[nH]c3ccccc3c2=O)cn1 [Compound 235, N-(6-isopropyl-3-pyridyl)-4-oxo-1H-quinoline-3-carboxamide]
13 | < 10 µM | ++ (between 25% to 100%) | O=C(Nc1ccc2ccn(Cc3ccccc3)c2c1)c1c[nH]c2ccccc2c1=O [Compound 203, N-(1-benzyl-1H-indol-6-yl)-4-oxo-1H-quinoline-3-carboxamide]
14 | 25 to 60 µM | + (<25%) | O=C(Nc1ccc2nc[nH]c2c1)c1c[nH]c2ccccc2c1=O [Compound 414, N-(3H-benzoimidazol-5-yl)-4-oxo-1H-quinoline-3-carboxamide]
15 | < 10 µM | ++ (between 25% to 100%) | Cc1ccc(N)cc1NC(=O)c1c[nH]c2ccccc2c1=O [Compound 94, N-(5-Amino-2-methyl-phenyl)-4-oxo-1H-quinoline-3-carboxamide]
